We go through one compound from ChEMBL document CHEMBL1149496, “Dissecting the determinants of cyclin-dependent kinase 2 and cyclin-dependent kinase 4 inhibitor selectivity” (J Med Chem, 2006).

pIC50: −log10 of the molar value.

In the experiment the target is Cyclin-dependent kinase 4 (Homo sapiens, UniProt P11802). Put plainly: Inhibition of CDK4.
Chain of Cyclin-dependent kinase 4 (P11802 whole entry): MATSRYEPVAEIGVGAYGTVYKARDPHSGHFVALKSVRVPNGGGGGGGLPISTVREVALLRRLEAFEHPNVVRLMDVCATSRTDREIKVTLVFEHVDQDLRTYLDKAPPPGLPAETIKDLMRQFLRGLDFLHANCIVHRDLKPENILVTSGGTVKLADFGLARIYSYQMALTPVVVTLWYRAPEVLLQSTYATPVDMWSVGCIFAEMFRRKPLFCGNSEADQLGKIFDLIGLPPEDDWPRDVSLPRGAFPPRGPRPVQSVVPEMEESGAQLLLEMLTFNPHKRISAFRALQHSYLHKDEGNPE

On to `Cc1ccc(Cl)c(N(CC#N)c2cc(Nc3ccc(OC[C@@H](O)CN(C)C)cc3)ncn2)c1`, for which the pIC50 (in general, the negative decadic logarithm of the IC50, by convention in mol/L) was 7.33.
